Patent publication EP4523682A1, “PROCESS TO COMPLEX OLEANOLIC ACID WITH CYCLODEXTRINS AND PRODUCTS OBTAINED THEREOF” (FUNDACION UNIVERSITARIA SAN ANTONIO (UCAM), priority 2023, dated 2025)

How the values were obtained:
[1] = test system: c-Jun active phosphorylated form (p-c-Jun); experiment: Cell-front migration assay, p-c-Jun immunostaining; format: cell-based, Mink; conditions: 12.5/3.12 µM/mM OA/HP-β-CD, 5 µM OA/DMSO
Description: Mv1Lu cells are grown until they reach confluence on round glass-coverslips in 10% FBS-EMEM medium. At this time, cells are washed and a 24h serum-starvation period is set by replacing the medium with FBS-free EMEM. After this, the epithelium is scratched using a razor blade, which produces an artificial wound with enough space to allow cells to migrate. […] After the selected times of incubation, glass-coverslips are fixed with 4% formaldehyde (Applichem GmbH, Darmstadt, Germany) in PBS (Biowest, Nuaillé, France) for 10 minutes and washed twice with PBS. After this, cells are permeabilized with 0,3% Triton X-100 (Sigma-Aldrich, St Louis, MO, USA) in PBS for 10 minutes. […] In order to quantify phospho-c-Jun levels in immunofluorescence pictures, images are analyzed and quantified by Image J software. […] Within each sector, the quantified signal of each nucleus is used as a replicate to obtain p-c-Jun intensity data in each of the conditions performed. For a better understanding, the relation of number of p-c-Jun positive nuclei between total nuclei number is calculated. For this purpose, a basal p-c-Jun intensity mean is calculated considering the control condition of the assays, set as a threshold. […]
Data of intensity values obtained from p-c-Jun nuclei quantifications in immunofluorescence pictures are analyzed by using two statistic tests: Two-way ANOVA test and One-way ANOVA test.

[2] = test system: phospho-JNK1/2 (Thr 183/Tyr 185); experiment: Western blot; format: cell-based, Human; conditions: 21/5.25 µM/mM OA/HP-β-CD; 10 µM OA/DMSO
Description: (§1) Mv1Lu or MDA-MB-231 cells are seeded and allowed to reach 60% confluence in 10 cm diameter plates. At this time, culture medium containing 10% FBS is replaced by an FBS-free medium, incubating the cells for a 24-hours period. Serum-deprived cells are treated with either OA, OA/HP-β-CD, DMSO, HP-β-CD or 10 ng/ml EGF. After time incubations, cells are harvested, washed twice with ice-cold PBS and lysed with 20 mM TRIS pH 7.5, 150 mM NaCl, 1 mM EDTA, 1.2 mM MgCl2, 0.5%, Nonidet p-40, 1mM DTT, 25 mM NaF and 25 mM β-glycerophosphate supplemented with phosphatase inhibitors (I and II) and protease inhibitors (all from Sigma-Aldrich, St Louis, MO, USA). Total protein amount of all extracts is measured and normalized by Bradford assay (Sigma-Aldrich, St Louis, MO, USA). The extracts are analyzed by SDS-PAGE followed by Western blot (WB) using the indicated antibodies (see Antibodies section). […] For protein quantification, Western pictures in 8-bit format are processed in imaged software. Subsequently, in all Western blot pictures, a lane is stablished for each of the samples. In each lane, the band is selected according to the specific size (kDa) of the protein of interest. For each total protein and their phosphorylated version, each band's intensity peak is plotted, and next, the area under the plot is measured by using "Wand (tracing) tool" of imaged to obtain the intensity value. In order to normalize, obtained intensity values are referred to obtained intensity values of either the unphosphorylated form of the protein (total) or a loading control protein such as β-actin, only if the unphosphorylated form is undetectable (non-available antibody for detecting the unphosphorylated form). […]

[3] = test system: phospho-c-Jun (Ser 63); experiment: Western blot; format: cell-based, Human; conditions: 21/5.25 µM/mM OA/HP-β-CD; 10 µM OA/DMSO
Description: as §1

[4] = test system: c-Jun; experiment: Western blot; format: cell-based, Human; conditions: 21/5.25 µM/mM OA/HP-β-CD; 10 µM OA/DMSO
Description: as §1

[5] = test system: focal adhesions (FAs) revealed by Paxillin; experiment: Cell-front migration assay, focal adhesions by paxillin immunostaining; format: cell-based, Mink; conditions: 6 and 12 hours; 12.5/3.12 µM/mM OA/HP-β-CD; 5 µM OA/DMSO; versus basal and vehicle control
Description: Mv1Lu cells are grown until they reach confluence on round glass-coverslips in 10% FBS-EMEM medium. At this time, cells are washed and a 24h serum-starvation period is set by replacing the medium with FBS-free EMEM. After this, the epithelium is scratched using a razor blade, which produces an artificial wound with enough space to allow cells to migrate. […] After the selected times of incubation, glass-coverslips are fixed with 4% formaldehyde (Applichem GmbH, Darmstadt, Germany) in PBS (Biowest, Nuaillé, France) for 10 minutes and washed twice with PBS. After this, cells are permeabilized with 0,3% Triton X-100 (Sigma-Aldrich, St Louis, MO, USA) in PBS for 10 minutes. For immunostaining, a blocking is performed for 30 minutes at room temperature in PBS solution with 10% FBS, 5% skim milk (Beckton Dickinson, Franklin Lakes, NJ, USA), 0,3% bovine serum albumin (BSA, Sigma-Aldrich, St Louis, MO, USA) and 0,1% Triton X-100. Then, cells are incubated 1 hour at room temperature with anti-paxillin or anti-phospho-c-Jun antibodies, diluted in blocking solution without skim milk. […] Briefly, focal adhesions are quantified from paxillin stained acquired pictures. […] Then, the number of FAs are calculated in each filopodia by using the previously mentioned macros. […] In parallel, the size of each FA is measured using the macros mentioned above. Finally, FA average size is calculated for each treatment.

Which results are given for Oleanolic acid [OA/DMSO]?
p-c-Jun in cells at the edge of the wound (immunostaining) ([1]; 6 and 12 hours): promote the up-regulation of this active form of c-Jun; p-c-Jun fluorescence in the nuclei (quantified) [1]: promoted the expression and activation of this factor; p-JNK1/2 [2]: stimulated this kinase at time 1 hours; p-c-Jun [3]: stronger stimulation of p-c-Jun at time 1 hour; total c-Jun levels [4]: stimulated c-Jun overexpression at the early time of 1 h; number of adhesion foci (FAs density) [5]: greater number of adhesion foci; size of adhesion foci (FA average size) [5]: small foci
